IC50 data for 23 compounds are collected here from patent US8859541B2, “6-alkynylpyridines” (Boehringer Ingelheim International GmbH, priority 2012, dated 2014).

One assay concerns the target T1, XIAP BIR3 (Homo sapiens, UniProt P98170).
T1 construct: covering amino acids 241 to 356; XIAP BIR3; made in house; host or cells: E. coli
Description: XIAP BIR3 binding assay (DELFIA), displacement of SMAC peptide. The note with it: GST-fusion BIR3 domain (aa 241 to 356) 10 nM, SMAC peptide 10 nM; activity of the (S)-isomers. The essentials: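 Each BIR3 domain (10 nM) incubated with biotinylated N-terminal SMAC peptide (10 nM) and compound for 1 h at room temp in Tris/NaCl buffer with BSA, DTT and Triton X-100. Captured on streptavidin plates; bound BIR3 detected by Eu-labelled anti-GST time-resolved fluorescence, giving IC50 values.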

In a further assay the target is T2, cIAP1 BIR3 (Homo sapiens, UniProt Q13490).
T2 construct: covering amino acids 256 to 363; cIAP1 BIR3; made in house; host or cells: E. coli
Description: cIAP1 BIR3 binding assay (DELFIA), displacement of SMAC peptide. The note with it: GST-fusion BIR3 domain (aa 256 to 363) 10 nM, SMAC peptide 10 nM; activity of the (S)-isomers. Here is the method:
Biological Methods XIAP BIR3 and cIAP1 BIR3 Binding Assays (DELFIA)
Peptide […]-Lys(Biotin), representing the N-terminus of mature human SMAC (SMAC peptide), was used as interaction partner in the protein-peptide interaction assay.
BIR3 domains (10 nM) were incubated with SMAC peptide (10 nM) in Assay Buffer (50 mM Tris, 120 mM NaCl, 0.1% BSA, 1 mM DTT, 0.05% TritonX100) for one hour at room temperature in the presence of inhibitiory compounds. The assay mixture was transferred to a strepatvidin coated plate and incubated for one hour at room temperature to allow binding of the biotinylated peptide and associated BIR3 domains to the plate. After several washing steps Eu labeled anti-GST antibody (e.g. Perkin Elmer DELFIA Eu-N1-antiGST AD0250) was added to detect BIR3 domain-SMAC peptide interactions according to Perkin Elmer's instructions. […] Time resolved Europium fluoresecence was measured in a Wallac Victor using Standard assay settings.
DELFIA assay results were plotted against compound concentrations and Software GraphPad Prizm was used to calculate half maximal inhibitory concentrations (IC50 values).

SMILES strings stand for the structures.

T2 sequence (Q13490 256-363): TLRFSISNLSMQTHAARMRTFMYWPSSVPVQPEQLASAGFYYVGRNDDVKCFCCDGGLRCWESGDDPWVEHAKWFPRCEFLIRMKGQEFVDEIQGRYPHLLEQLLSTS
T1 sequence (P98170 241-356): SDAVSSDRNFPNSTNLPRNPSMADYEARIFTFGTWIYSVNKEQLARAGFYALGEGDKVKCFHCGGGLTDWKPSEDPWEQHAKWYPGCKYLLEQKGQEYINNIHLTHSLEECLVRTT

For `CNC(C)C(=O)Nc1ccc(-c2c(C)nc3ccccn23)c(C#Cc2ccc(C#N)c(Cl)c2)n1` (stereo not shown) [Example 41, N-[6-[2-(3-chloro-4-cyanophenyl)ethynyl]-5-(2-methylimidazo[1,2-a]pyridin-3-yl)pyridin-2-yl]-2-(methyl-amino)propanamide], the 50% inhibitory concentration (IC50) was determined as 123 nM on XIAP BIR3 and 1 nM at cIAP1 BIR3.

Take `CNC(C)C(=O)Nc1ccc(-c2c(C)nc3ccccn23)c(C#Cc2ccc3ncsc3c2)n1` (stereo not shown) [Example 42, N-[6-[2-(1,3-benzothiazol-6-yl)-ethynyl]-5-(2-methyl-imidazo[1,2-a]pyridin-3-yl)-pyridin-2-yl]-2-(methylamino)-propanamide]: the IC50 at XIAP BIR3 was 94 nM; on cIAP1 BIR3, 1 nM.

`CNC(C)C(=O)Nc1ccc(-c2c(C)nc3ccccn23)c(C#Cc2ccc(-c3cnco3)cc2)n1` (stereo not shown) [Example 44, 2-(methylamino)-N-[5-(2-methylimidazo[1,2-a]pyridin-3-yl)-6-[2-[4-(1,3-oxazol-5-yl)-phenyl]ethynyl]pyridin-2-yl]-propanamide]: the IC50 on XIAP BIR3 turned out to be 136 nM; at cIAP1 BIR3, 1 nM.

With `CNC(C)C(=O)Nc1ccc(-c2c(C)ncnc2C)c(C#Cc2ccc3cnccc3c2)n1` (stereo not shown) [Example 45, N-[5-(4,6-dimethylpyrimidin-5-yl)-6-(2-isoquinolin-6-yl-ethynyl)pyridin-2-yl]-2-(methyl-amino)propanamide], the values for the IC50 on XIAP BIR3 and at cIAP1 BIR3 were 431 nM and 2 nM, respectively.

For the compound `CNC(C)C(=O)Nc1ccc(-c2c(C)nc3cc(Cl)ccn23)c(C#Cc2ccc3ncccc3c2)n1` (stereo not shown) [Example 46, N-[5-(7-chloro-2-methyl-imidazo[1,2-a]pyridin-3-yl)-6-(2-quinolin-6-ylethynyl)pyridin-2-yl]-2-(methylamino)propan-amide], the IC50 on XIAP BIR3 turned out to be 145 nM; on cIAP1 BIR3, 1 nM.

Turning to `CNC(C)C(=O)Nc1ccc(-c2c(C)nc3cc(F)ccn23)c(C#Cc2ccc3ncccc3c2)n1` (stereo not shown) [Example 47, N-[5-(7-fluoro-2-methyl-imidazo[1,2-a]pyridin-3-yl)-6-(2-quinolin-6-ylethynyl)pyridin-2-yl]-2-(methylamino)propan-amide], the values for the IC50 at XIAP BIR3 and on cIAP1 BIR3 were 180 nM and 1 nM, respectively.

Take `CNC(C)C(=O)Nc1ccc(-c2c(C)nc3ccccn23)c(C#Cc2ccc3nccn3c2)n1` (stereo not shown) [Example 48, N-[6-(2-imidazo[1,2-a]pyridin-6-ylethynyl)-5-(2-methyl-imidazo[1,2-a]pyridin-3-yl)-pyridin-2-yl]-2-(methylamino)-propanamide]: the IC50 on XIAP BIR3 came to 212 nM; at cIAP1 BIR3, 1 nM.

Regarding `CNC(C)C(=O)Nc1ccc(-c2c(C)nc3ccccn23)c(C#Cc2ccc3cnn(C)c3c2)n1` (stereo not shown) [Example 49, 2-(methylamino)-N-[5-(2-methylimidazo[1,2-a]pyridin-3-yl)-6-[2-(1-methylindazol-6-yl)-ethynyl]pyridin-2-yl]propan-amide], the IC50 at XIAP BIR3 is 107 nM; on cIAP1 BIR3, 1 nM.

On to `CNC(C)C(=O)Nc1ccc(-c2c(C)nc3ccccn23)c(C#Cc2cc3ccncc3s2)n1` (stereo not shown) [Example 50, 2-(methylamino)-N-[5-(2-methylimidazo[1,2-a]pyridin-3-yl)-6-(2-thieno[2,3-c]pyridin-2-ylethynyl)pyridin-2-yl]propan-amide], for which the IC50 at XIAP BIR3 stood at 95 nM; at cIAP1 BIR3, 1 nM.

As for `CNC(C)C(=O)Nc1ccc(-c2c(C)nc3ccccn23)c(C#Cc2ccc3occc3c2)n1` (stereo not shown) [Example 52, N-[6-[2-(1-benzofuran-5-yl)-ethynyl)-5-(2-methyl-imidazo[1,2-a]pyridin-3-yl)-pyridin-2-yl]-2-(methylamino)-propanamide], the IC50 was determined as 145 nM at XIAP BIR3 and 1 nM at cIAP1 BIR3.

In the case of `CNC(C)C(=O)Nc1ccc(-c2c(C)nc3ccccn23)c(C#Cc2ccc3c(c2)COC3)n1` (stereo not shown) [Example 53, N-[6-[2-(1,3-dihydro-2-benzofuran-5-yl)ethynyl]-5-(2-methylimidazo[1,2-a]pyridin-3-yl)pyridin-2-yl]-2-(methyl-amino)propanamide], the results for the IC50 on XIAP BIR3 and on cIAP1 BIR3 were 116 nM and 1 nM, respectively.

Regarding `CNC(C)C(=O)Nc1ccc(-c2c(C)nc(N3CCOCC3)nc2C)c(C#Cc2ccc3ncccc3c2)n1` (stereo not shown) [Example 54, N-[5-(4,6-dimethyl-2-morpholin-4-ylpyrimidin-5-yl)-6-(2-quinolin-6-ylethynyl)-pyridin-2-yl]-2-(methylamino)-propanamide], the figures for the IC50 on XIAP BIR3 and at cIAP1 BIR3 were 863 nM and 1 nM, respectively.

`CNC(C)C(=O)Nc1ccc(-c2c(C)nc3ccccn23)c(C#Cc2nn(C)c3ncccc23)n1` (stereo not shown) [Example 58, 2-(methylamino)-N-[5-(2-methylimidazo[1,2-a]pyridin-3-yl)-6-[2-(1-methylpyrazolo[3,4-b]pyridin-3-yl)ethynyl]pyridin-2-yl]propanamide]: the values for the IC50 on XIAP BIR3 and at cIAP1 BIR3 were 224 nM and 5 nM, respectively.

For the compound `CNC(C)C(=O)Nc1ccc(-c2c(C)nc3ccccn23)c(C#Cc2cnc3ccccn23)n1` (stereo not shown) [Example 60, N-[6-(2-imidazo[1,2-a]pyridin-3-ylethynyl)-5-(2-methyl-imidazo[1,2-a]pyridin-3-yl)-pyridin-2-yl]-2-(methylamino)-propanamide], the IC50 on XIAP BIR3 was found to be 184 nM; on cIAP1 BIR3, 2 nM.

In the case of `CNC(C)C(=O)Nc1ccc(-c2c(C)nc3ccccn23)c(C#Cc2nn(C)c3ccccc23)n1` (stereo not shown) [Example 61, 2-(methylamino)-N-[5-(2-methylimidazo[1,2-a]pyridin-3-yl)-6-[2-(1-methylindazol-3-yl)-ethynyl]pyridin-2-yl]propan-amide], the IC50 on XIAP BIR3 was 187 nM; at cIAP1 BIR3, 5 nM.

For the compound `CNC(C)C(=O)Nc1ccc(-c2c(C)nc3ccccn23)c(C#Cc2ccc(C(N)=O)cc2)n1` (stereo not shown) [Example 63, 4-[2-[6-[[2-(methylamino)-propanoyl]amino]-3-(2-methyl-imidazo[1,2-a]pyridin-3-yl)-pyridin-2-yl]ethynyl]benzamide], the figures for the IC50 on XIAP BIR3 and at cIAP1 BIR3 were 70 nM and 1 nM, respectively.

Turning to `CNC(C)C(=O)Nc1ccc(-c2c(-c3ccncc3)nc3cc(C)ccn23)c(C#Cc2ccc3nc(C)ccc3c2)n1` (stereo not shown) [Example 64, 2-(methylamino)-N-[5-(7-methyl-2-pyridin-4-ylimidazo[1,2-a]pyridin-3-yl)-6-[2-(2-methylquinolin-6-yl)-ethynyl]pyridin-2-yl]propan-amide], the IC50 at XIAP BIR3 is 152 nM; at cIAP1 BIR3 it was 1 nM.

Regarding `CNC(C)C(=O)Nc1ccc(-c2c(C)nc3ccccn23)c(C#Cc2ccc3c(c2)CC(=O)N3C)n1` (stereo not shown) [Example 66, 2-(methylamino)-N-[5-(2-methyliniidazo[1,2-a]pyridin-3-yl)-6-[2-(1-methyl-2-oxo-3H-indol-5-yl)ethynyl]pyridin-2-yl]-propanamide], the IC50 turned out to be 252 nM on XIAP BIR3 and 1 nM on cIAP1 BIR3.

Take `CNC(C)C(=O)Nc1ccc(-c2c(C)nc3ccccn23)c(C#Cc2ccc3c(c2)CCO3)n1` (stereo not shown) [Example 69, N-[6-[2-(2,3-dihydro-1-benzofuran-5-yl)ethynyl]-5-(2-methylimidazo[1,2-a]pyridin-3-yl)pyridin-2-yl]-2-(methyl-amino)propanamide]: the results for the IC50 on XIAP BIR3 and on cIAP1 BIR3 were 110 nM and 2 nM, respectively.

For `CNC(C)C(=O)Nc1ccc(-c2c(C)nc3ccccn23)c(C#Cc2cc3ccccc3o2)n1` (stereo not shown) [Example 70, N-[6-[2-(1-benzofuran-2-yl)-ethynyl]-5-(2-methyl-imidazo[1,2-a]pyridin-3-yl)-pyridin-2-yl]-2-(methylamino)-propanamide], the IC50 on XIAP BIR3 was 66 nM; on cIAP1 BIR3 it was 1 nM.

Regarding `CNC(C)C(=O)Nc1ccc(-c2c(C)nc3ccccn23)c(C#Cc2ccc3c(c2)oc(=O)n3C)n1` (stereo not shown) [Example 71, 2-(methylamino)-N-[5-(2-methylimidazo[1,2-a]pyridin-3-yl)-6-[2-(3-methyl-2-oxo-1,3-benzoxazol-6-yl)ethynyl]-pyridin-2-yl]propanamide], the IC50 amounted to 300 nM at XIAP BIR3 and 1 nM on cIAP1 BIR3.

Consider `CNC(C)C(=O)Nc1ccc(-c2c(C)nc3ccccn23)c(C#Cc2ccc3nn(C)cc3c2)n1` (stereo not shown) [Example 72, 2-(methylamino)-N-[5-(2-methylimidazo[1,2-a]pyridin-3-yl)-6-[2-(2-methylindazol-5-yl)-ethynyl]pyridin-2-yl]propan-amide], for which the IC50 turned out to be 145 nM at XIAP BIR3 and 1 nM on cIAP1 BIR3.

As for `CNC(C)C(=O)Nc1ccc(-c2c(C)nc3ccccn23)c(C#Cc2ccc3oc(=O)n(C)c3c2)n1` (stereo not shown) [Example 74, 2-(methylamino)-N-[5-(2-methylimidazo[1,2-a]pyridin-3-yl)-6-[2-(3-methyl-2-oxo-1,3-benzoxazol-5-yl)ethynyl]-pyridin-2-yl]propanamide], the IC50 on XIAP BIR3 was determined as 175 nM; at cIAP1 BIR3, 1 nM.

For orientation: IC50 means the concentration needed to halve the response being measured. A lower IC50 goes with greater potency.
